Test results as given in US4360663A, “Steroid hormone-antitumor derivatives” (Kureha Kagaku Kogyo Kabushiki Kaisha, priority 1978, dated 1982).

Columns and labels:
[1] = test system: human breast cancer cells having steroid hormone receptor; experiment: Antitumor test (in vivo), human breast cancer cells implanted in BALB/C-nu/nu mice; details: tumors excised day 25
Protocol: Pieces of human breast cancer cells having steroid hormone receptor was subcutaneously implanted under the arm of mice (BALB/C-nu/nu) (5 week age) to form solid tumors. After the solid tumors were established, each dispersion or solution of the active ingredient in olive oil was administered by oral dose or intraperitoneal injection each other day for 10 times or every days for 20 times. Twenty five days from the initial administration, the tumors were excised. Efficiency of inhibition of tumor proliferation was measured from (A) each average weight of excised tumors for 10 mice (the active ingredient was administrated) and (B) each average weight of excised tumors for 10 control mice. [formula]
(§1) The tests (1), (2), (3) for various active ingredients were carried out.

[2] = test system: estrogen sensitive cells (uterus of rabbit); experiment: Binding function to estrogen sensitive cells (3H-estradiol replacement, uterus of rabbit); details: 10 nM sample; smaller value = higher binding; 54-56% at 0 nM
[3] = test system: estrogen sensitive cells (uterus of rabbit); experiment: as above; details: 100 nM sample; smaller value = higher binding; 54-56% at 0 nM
Protocol: Binding function of the active ingredients to estrogen sensitive cells.
The binding function of the active ingredient to tumor cells was tested by the method described in Biochemical Experiment text Hormone (I) (Nippon Seikagaku) (Tokyo Kagakudojin page 217-252, April 25, 1977).
Estradiol labelled by tritium (^3 H) was incubated with uterus of rabbit to bind it and then, the sample was added to the system to measure the amount of free ^3 H-estradiol which was replaced by the added estradiol. The results are shown as the binding ^3 H-estradiol(%) in the cases adding […] of the sample.

[4] = Acute toxicity (LD50), ICR-JCL female mice, Litchfield-Wilcoxon graph method; details: mouse, in vivo, one dose, in olive oil, after 7 days
Protocol: In the measurement of LD50, eight ICR-JCL female mice (5 week age) were used as one group to breed in a transparent polycage, and each drug was dissolved in olive oil and administrated by routes of intraperitoneal injection (i.p.), oral administration (p.o.) and subcutaneous injection (s.c.), to the mice at one dose and then, their value of LD50 by Litchfield-Wilcoxon graph method is obtained after 7 days.
as §1

CN(N=O)C(=O)N[C@H]1C(O)O[C@H](C(=O)OCC(=O)O[C@H]2CC[C@H]3[C@@H]4CCc5cc(O)ccc5[C@H]4CC[C@]23C)[C@@H](O)[C@@H]1O (stereo partly drawn) [Test No. 6 (Table 17), 3-hydroxy-1,3,5(10)-estratriene-17β-[2-(N'-methyl-N'-nitrosoureido)-2-deoxy-D-glucuronoyloxy]acetate]
Inhibitory effect of tumor, efficiency ([1]; i.p., 5 mg/kg): 92%
Inhibitory effect of tumor, efficiency ([1]; i.p., 10 mg/kg): 97%
Inhibitory effect of tumor, efficiency ([1]; p.o., 10 mg/kg): 77%
Inhibitory effect of tumor, efficiency ([1]; p.o., 40 mg/kg): 84%
Binding 3H-estradiol [2]: 28%
Binding 3H-estradiol [3]: 16%
LD50 at 168 h ([4]; ip): > 660 mg/kg
LD50 at 168 h ([4]; po): > 1000 mg/kg

C[C@]12CC[C@@H]3c4ccc(O)cc4CC[C@H]3[C@@H]1CC[C@@H]2OC(=O)Cn1cc(F)c(=O)[nH]c1=O [Test No. 7 (Table 17), 3-hydroxy-1,3,5(10)-estratriene-17β-[5-fluoro-2,4-dioxo-pyrimidin-1-yl]acetate]
Inhibitory effect of tumor, efficiency ([1]; i.p., 10 mg/kg): 90%
Inhibitory effect of tumor, efficiency ([1]; i.p., 20 mg/kg): 100%
Binding 3H-estradiol [2]: 36%
Binding 3H-estradiol [3]: 25%
LD50 at 168 h ([4]; ip): > 605 mg/kg
LD50 at 168 h ([4]; po): > 2000 mg/kg

CN(Cc1cnc2nc(N)nc(N)c2n1)c1ccc(C(=O)N[C@@H](CCC(=O)OCC(=O)O[C@H]2CC[C@H]3[C@@H]4CCc5cc(O)ccc5[C@H]4CC[C@]23C)C(=O)OCC(=O)O[C@H]2CC[C@H]3[C@@H]4CCc5cc(O)ccc5[C@H]4CC[C@]23C)cc1 [Test No. 9 (Table 17), bis 3-hydroxy-1,3,5(10)-estratriene-17β-oxycarbonylmethyl-4-amino-N^10-methylpteroylglutamate]
Inhibitory effect of tumor, efficiency ([1]; i.p., 5 mg/kg): 98%
Inhibitory effect of tumor, efficiency ([1]; p.o., 10 mg/kg): 80%
Inhibitory effect of tumor, efficiency ([1]; p.o., 50 mg/kg): 93%
Binding 3H-estradiol [2]: 35%
Binding 3H-estradiol [3]: 19%
LD50 at 168 h ([4]; ip): > 235 mg/kg
LD50 at 168 h ([4]; po): > 3000 mg/kg

C[C@]12CC[C@@H]3c4ccc(O)cc4CC[C@H]3[C@@H]1CC[C@@H]2O [compound 1]
Binding 3H-estradiol [2]: 36%
Binding 3H-estradiol [3]: 16%

CO[C@H]1O[C@H](C(=O)OCC(=O)O[C@H]2CC[C@H]3[C@@H]4CCc5cc(O)ccc5[C@H]4CC[C@]23C)[C@@H](O)[C@H](O)[C@H]1NC(=O)N(CCCl)N=O [compound 2]
Inhibitory effect of tumor, efficiency ([1]; i.p., 1 mg/kg): 90%
Inhibitory effect of tumor, efficiency ([1]; i.p., 3 mg/kg): 92%
Inhibitory effect of tumor, efficiency ([1]; p.o., 10 mg/kg): 79%
Inhibitory effect of tumor, efficiency ([1]; p.o., 40 mg/kg): 82%
Binding 3H-estradiol [2]: 45%
Binding 3H-estradiol [3]: 30%
LD50 at 168 h ([4]; ip): > 180 mg/kg
LD50 at 168 h ([4]; po): > 1000 mg/kg

CO[C@H]1O[C@H](CO)[C@@H](O)[C@H](O)[C@H]1NC(=O)N(CCCl)N=O [compound 3]
Binding 3H-estradiol [2]: 55%
Binding 3H-estradiol [3]: 55%

COc1cccc2c1C(=O)c1c(O)c3c(c(O)c1C2=O)C[C@@](O)(C(C)=O)C[C@@H]3O[C@H]1C[C@H](N)[C@H](O)[C@H](C)O1 [compound 4]
Binding 3H-estradiol [2]: 56%
Binding 3H-estradiol [3]: 56%

O=c1[nH]cc(F)c(=O)[nH]1 [compound 8]
Binding 3H-estradiol [2]: 55%
Binding 3H-estradiol [3]: 53%
